Data: US8765946B2, “Methods of preparing and using quinazoline and quinoline derivatives” (priority 2006, dated 2014)

What was measured:
[1] = target: T1, A431 cells EGFR-TK phosphorylation stimulated by EGF (Homo sapiens, UniProt P00533); assay: Inhibition of cellular EGFR-TK phosphorylation stimulated by EGF in A431 cells; type: cell-based; conditions: for inhibition at 3 µM: A-431, concentration of 3 μM, A431 cells, EGF stimulated, one-time measurement at a single concentration (preliminary selection), NA = No activity, read-out: Inhibition Percent (%)
T1 construct: against A431 cells EGFR-TK; endogenous in cells; host or cells: A431 cells
T1 sequence (P00533 25-1210): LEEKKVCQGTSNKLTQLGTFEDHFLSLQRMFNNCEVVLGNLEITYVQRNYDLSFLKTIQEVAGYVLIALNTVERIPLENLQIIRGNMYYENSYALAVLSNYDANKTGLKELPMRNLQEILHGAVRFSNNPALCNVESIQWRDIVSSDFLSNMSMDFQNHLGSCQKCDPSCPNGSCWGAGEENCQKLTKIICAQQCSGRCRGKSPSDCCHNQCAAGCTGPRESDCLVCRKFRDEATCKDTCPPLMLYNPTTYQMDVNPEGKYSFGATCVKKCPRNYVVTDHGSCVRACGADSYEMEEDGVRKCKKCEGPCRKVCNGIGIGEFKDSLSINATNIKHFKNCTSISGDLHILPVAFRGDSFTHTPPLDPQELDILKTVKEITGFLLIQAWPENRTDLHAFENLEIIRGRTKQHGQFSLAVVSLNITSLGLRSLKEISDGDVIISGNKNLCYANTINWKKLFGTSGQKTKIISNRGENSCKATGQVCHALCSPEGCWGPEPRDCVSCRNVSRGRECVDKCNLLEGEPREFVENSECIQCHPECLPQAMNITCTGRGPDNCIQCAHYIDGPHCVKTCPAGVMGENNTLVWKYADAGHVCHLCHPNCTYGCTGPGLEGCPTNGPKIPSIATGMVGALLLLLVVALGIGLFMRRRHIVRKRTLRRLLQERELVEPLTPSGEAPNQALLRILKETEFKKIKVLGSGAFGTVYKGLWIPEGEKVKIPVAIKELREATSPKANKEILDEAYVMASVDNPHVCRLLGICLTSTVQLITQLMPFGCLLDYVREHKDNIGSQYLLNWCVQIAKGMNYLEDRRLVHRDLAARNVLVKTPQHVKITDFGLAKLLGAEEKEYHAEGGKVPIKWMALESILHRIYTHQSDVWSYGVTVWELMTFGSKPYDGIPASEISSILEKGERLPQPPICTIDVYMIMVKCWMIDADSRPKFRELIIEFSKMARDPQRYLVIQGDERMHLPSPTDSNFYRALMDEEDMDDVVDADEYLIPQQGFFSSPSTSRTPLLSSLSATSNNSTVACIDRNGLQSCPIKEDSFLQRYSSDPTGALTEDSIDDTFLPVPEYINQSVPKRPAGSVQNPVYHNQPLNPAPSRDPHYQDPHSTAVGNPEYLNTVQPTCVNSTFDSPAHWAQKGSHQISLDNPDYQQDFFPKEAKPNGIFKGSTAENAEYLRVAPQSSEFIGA
Method: Inhibition Experiment of Cellular Epidermal Growth Factor Receptor Tyrosine Kinase
1) A431 cells were cultured in a medium which was prepared by adding 10% FCS into another medium comprising 50% DMEM and 50% F12.
2) A431 cells grown in six-well plates were cultured in a serum-free medium for 24 hours. During the 24 hour period the medium was replenished once after 12 hours.
3) A solution containing a compound to be assessed was added the A431 cells and the cells were cultured for 2 hours, supplemented twice by a medium free of the compound, and then EGF (100 ng/well) was added, and cultured for 5 minutes.
4) A431 cell homogenate was prepared by Laemili buffer which comprised 2% sodium dodecyl sulfonate (SDS), 5% 2-mercaptoethanol, 10% glycerol and 5 mM Tris (pH 6.8).
(§1) 5) The A431 cell homogenate was heated for 5 minutes at 100° C.
6) Proteins in the A431 cell homogenates were separated by PAGE and transferred onto a nitrocellulose membrane, and an infrared reading was obtained.

[2] = tested on: A431 cells; assay: Cell growth inhibition assay (MTS assay), A431; type: cell-based; conditions: Homo sapiens
[3] = tested on: BT474 cells; assay: Cell growth inhibition assay (MTS assay), BT474; conditions: Homo sapiens, BT-474, 48 h, read-out: Growth inhibition activity (EC50) BT474
Method: (§2) Cell Growth Inhibition Assay (MTS Assay)
(§3) A431: human epithelial adenocarcinoma cell strain; LoVo: human colorectal cancer cell strain; BT474: breast cancer; SK-Br-3: breast cancer; SIT solution (SIGMA); RPMI1640 culture solution; phosphoric acid buffer; Dimethyl Sulphoxide (DMSO); MTS solution (Promega), 96 well cell culture plate, representative anti-cancer compounds.
(§4) The cells were cultured overnight under the condition of 5% CO2 and 37° C. The next day, representative anti-cancer compounds (between 3 and 10 mM) were dissolved by dimethyl sulphoxide (DMSO) as a mother solution. Adriamycin was used as positive control, DMSO was used as negative control. According to experimental design, the mother solution was diluted and added to the 96 well cell culture plate, cultured for 48 hours under the condition of 5% CO2 and 37° C. Subsequently, 20 μL of MTS solution was added to each well of the 96 well cell culture plate and cultured for another 2 to 4 hours under the condition of 5% CO2 and 37° C. Absorbance was read at 490 nm wavelength, and converted into cell survival rate.
(§5) For each concentration, there two measurements were taken and the average was obtained.

[4] = tested on: colorectal cancer LoVo cells; assay: Cell growth inhibition assay (MTS assay), LoVo; type: cell-based; conditions: Homo sapiens, 48 hours
[5] = target: T2, BT474 cells Her-2 receptor TK phosphorylation stimulated by Her-2 (Homo sapiens, UniProt P04626); assay: Inhibition of BT474 cells Her-2 receptor TK phosphorylation; type: cell-based
T2 construct: against BT474 cells; endogenous in cells; host or cells: BT474 cells
T2 sequence (P04626 23-1255): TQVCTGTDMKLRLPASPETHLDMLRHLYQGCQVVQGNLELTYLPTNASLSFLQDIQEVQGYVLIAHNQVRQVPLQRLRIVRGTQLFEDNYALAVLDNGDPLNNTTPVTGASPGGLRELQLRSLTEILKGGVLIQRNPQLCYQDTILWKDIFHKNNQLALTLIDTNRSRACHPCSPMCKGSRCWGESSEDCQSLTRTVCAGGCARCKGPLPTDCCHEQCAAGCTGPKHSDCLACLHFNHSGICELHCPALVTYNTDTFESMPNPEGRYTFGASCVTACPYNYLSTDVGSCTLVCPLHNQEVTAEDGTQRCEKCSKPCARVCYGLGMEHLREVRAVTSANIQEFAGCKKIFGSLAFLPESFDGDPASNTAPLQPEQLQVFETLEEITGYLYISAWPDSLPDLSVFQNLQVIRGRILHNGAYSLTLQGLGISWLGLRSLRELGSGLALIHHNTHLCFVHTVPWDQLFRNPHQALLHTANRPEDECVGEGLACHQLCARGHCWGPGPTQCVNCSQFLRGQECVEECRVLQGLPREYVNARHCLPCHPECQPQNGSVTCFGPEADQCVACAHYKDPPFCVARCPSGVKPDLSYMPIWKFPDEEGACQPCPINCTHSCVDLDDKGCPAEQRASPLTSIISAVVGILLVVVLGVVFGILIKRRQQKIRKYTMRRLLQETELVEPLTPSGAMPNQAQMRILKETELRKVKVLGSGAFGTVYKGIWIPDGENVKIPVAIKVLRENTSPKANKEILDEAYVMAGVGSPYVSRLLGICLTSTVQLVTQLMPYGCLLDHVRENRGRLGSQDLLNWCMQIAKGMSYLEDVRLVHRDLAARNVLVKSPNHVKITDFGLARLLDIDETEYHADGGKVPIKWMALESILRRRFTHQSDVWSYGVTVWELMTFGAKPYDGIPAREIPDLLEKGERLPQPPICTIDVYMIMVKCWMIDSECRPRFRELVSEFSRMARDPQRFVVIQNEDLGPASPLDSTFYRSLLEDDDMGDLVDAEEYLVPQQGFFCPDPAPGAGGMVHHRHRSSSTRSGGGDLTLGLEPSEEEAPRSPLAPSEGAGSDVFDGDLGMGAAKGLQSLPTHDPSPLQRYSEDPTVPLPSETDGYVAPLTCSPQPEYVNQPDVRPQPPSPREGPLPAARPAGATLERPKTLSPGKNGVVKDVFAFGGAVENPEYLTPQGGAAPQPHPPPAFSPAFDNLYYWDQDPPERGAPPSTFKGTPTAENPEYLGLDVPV
Method: Following literature procedured, inhibitory activity of representative compounds against BT474 cells Her-2 receptor TK phosphorylation stimulated by Her-2 was measured, and partial results are listed in Table 6.

[6] = tested on: SK-Br-3 cells; assay: Cell growth inhibition assay (MTS assay), SK-Br-3; conditions: Homo sapiens, SK-BR-3, 48 h, read-out: Growth inhibition activity (EC50) SK-Br-3
Method: as §2, §3, §4, §5

[7] = target: T1, A431 cells EGFR-TK phosphorylation stimulated by EGF; assay: Irreversible inhibition of cellular EGFR-TK (A431 cells, inhibition and recovery); type: cell-based; conditions: for Inhibition percent(%): A431 cells, 2 hours with compound, supplemented twice by compound-free medium, then EGF; for Activity (irreversible or reversible inhibitor): A431 cellular model test
Method: Irreversible Inhibition of Cellular Epidermal Growth Factor Receptor Tyrosine Kinase (EGFR-TK)
1) A431 cells were cultured in a medium prepared by adding 10% FCS into another medium comprising 50% DMEM and 50% F12.
2) The A431 cells grown in six-well plates were cultured in a serum-free medium for 24 hours, during the period the medium was replenished once after 12 hours.
3) A solution containing a compound to be assessed was added to the A431 cells and cultured for 2 hours, supplemented twice by a medium free of the compound, and then EGF (100 ng/well) was added, and cultured for 5 minutes.
4) A431 cell homogenate was prepared by Laemili buffer which comprised 2% sodium dodecyl sulfonate (SDS), 5% 2-mercaptoethanol, 10% glycerol and 5 mM Tris; the pH value is 6.8.
as §1
6) Proteins in the A431 cell homogenates were separated by PAGE, transferred onto a nitrocellulose membrane, and an infrared reading was obtained.

[8] = tested on: BT474 cells; assay: BT-474 cell growth inhibition assay (SRB assay); type: cell-based; conditions: Homo sapiens, concentration of 3 μM, 72 h, read-out: Inhibition Percent (%)
How it was run: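 BT-474 breast cancer cells seeded overnight, then treated 72 h with fourfold serial dilutions from 20 μM (working solution before 10× addition), DMSO kept at 1% in the 10× solutions. Growth measured by TCA fixation and sulforhodamine B protein staining, dye dissolved in 10 mM Tris.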

[9] = tested on: A431 cells; assay: A431 cell growth inhibition assay (MTT assay); type: cell-based; conditions: Homo sapiens
How it was run: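 A431 epidermoid carcinoma cells in DMEM/F12 (1:1) with 10% FBS were seeded at 2.5×10^4 cells/mL, attached overnight, then exposed to compound (final 10 μM to 1.52 nM) for 72 h at 37° C, 5% CO2. Viability was read by MTT (0.5 mg/mL, 4 h), formazan dissolved in DMSO, absorbance 490 nm.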

[10] = A-431, A431 cells, MTS, 48 hours, read-out: Growth inhibition activity EC50
[11] = A431 cells EGFR-TK phosphorylation stimulated by EGF (Table 4)
[12] = A431 cells EGFR-TK phosphorylation stimulated by EGF (Table 5)

**Q.** For `COc1cc2ncnc(Nc3ccc(F)c(Cl)c3)c2cc1NC(=O)C=C1CCN(C)CC1` [Example 72, N-(4-(3-chloro-4-fluorophenylamino)-7-methoxyquinazolin-6-yl)-2-(1-methylpiperidin-4-ylidene)acetamide], which inhibition at 3 µM [1] is on record?
**A.** The inhibition at 3 µM was 97%.

**Q.** And the EC50 [2, 10]?
**A.** Its EC50 is 0.09 µM.

**Q.** And the EC50 [3]?
**A.** Its EC50 is 1310 nM.

**Q.** And the EC50 [4]?
**A.** The EC50 was 1800 nM.

**Q.** What about the EC50 [5] of the same compound?
**A.** Its EC50 is 820 nM.

**Q.** What about the EC50 [6] of the same compound?
**A.** Its EC50 is 800 nM.

**Q.** What does the source list for `C#Cc1cccc(Nc2ncnc3cc(OC)c(NC(=O)C=C4CCN(C)CC4)cc23)c1` [Example 51, N-(4-(3-ethynylphenylamino)-7-methoxyquinazolin-6-yl)-2-(1-methylpiperidin-4-ylidene)acetamide]?
**A.** inhibition at 3 µM [1]: 94%; EC50 [2, 10]: 0.12 µM; EC50 [4]: 7600 nM

**Q.** With `O=C(C=C1CCNCC1)Nc1ccc2ncnc(Nc3cccc(Br)c3)c2c1` [Example 33, N-(4-(3-bromophenylamino)quinazolin-6-yl)-2-(piperidin-4-ylidene)acetamide] as the compound, how does the EC50 [1, 11] read?
**A.** The EC50 was 38 nM.

**Q.** What about the EC50 [1, 12] of the same compound?
**A.** The EC50 was 38 nM.

**Q.** What about the inhibition at 3 µM [1] of the same compound?
**A.** The inhibition at 3 µM was 94%.

**Q.** And the EC50 [2, 10]?
**A.** Its EC50 is 0.1 µM.

**Q.** What about the “Inhibition percent(%)” value [7] of the same compound?
**A.** The value was 89%.

**Q.** What about the “Activity (irreversible or reversible inhibitor)” value [7] of the same compound?
**A.** The value was “Irreversible inhibitor”.

**Q.** What does the source list for `COc1cc2ncnc(Nc3ccc(OCc4cccc(F)c4)c(Cl)c3)c2cc1NC(=O)C=C1CCNCC1` [Example 105, N-(4-(4-(3-fluorobenzyloxy)-3-chlorophenylamino)-7-methoxyquinazolin-6-yl)-2-(piperidin-4-ylidene)acetamide]?
**A.** inhibition at 3 µM [1]: 44%; EC50 [5]: 480 nM

**Q.** `COc1cc2ncnc(Nc3ccc(F)c(Cl)c3)c2cc1NC(=O)C=C1CCNCC1` [Example 43, N-(4-(3-chloro-4-fluorophenylamino)-7-methoxyquinazolin-6-yl)-2-(piperidin-4-ylidene)acetamide] was tested. Which inhibition at 3 µM [1] did it give?
**A.** The inhibition at 3 µM was 91%.

**Q.** And the EC50 [2, 10]?
**A.** The EC50 was 0.11 µM.

**Q.** What about the EC50 [3] of the same compound?
**A.** Its EC50 is 610 nM.

**Q.** And the EC50 [4]?
**A.** Its EC50 is 1500 nM.

**Q.** What about the EC50 [5] of the same compound?
**A.** The EC50 was 350 nM.

**Q.** And the EC50 [6]?
**A.** The EC50 was 520 nM.

**Q.** For `CCOc1cc2ncc(C#N)c(Nc3ccc(F)c(Cl)c3)c2cc1NC(=O)C=C1CCNCC1` [Example 150, N-(4-(3-chloro-4-fluorophenylamino)-3-cyano-7-ethoxyquinolin-6-yl)-2-(piperidin-4-ylidene)acetamide], which inhibition at 3 µM [1] is on record?
**A.** Its inhibition at 3 µM is 46%.

**Q.** What about the inhibition at 3 µM [8] of the same compound?
**A.** The inhibition at 3 µM was 56%.

**Q.** What about the EC50 [5] of the same compound?
**A.** Its EC50 is 260 nM.

**Q.** And the EC50 ([9]; A-431, 72 hours (Table 11))?
**A.** Its EC50 is 170 nM.

**Q.** What about the inhibition at 3 µM ([9]; A-431, concentration of 3 μM, 72 hours, read-out: Inhibition Percent (%)) of the same compound?
**A.** Its inhibition at 3 µM is 95%.

**Q.** Which results are given for `COc1cc2ncnc(Nc3cccc(Br)c3)c2cc1NC(=O)C=C1CCNCC1` [Example 38, N-(4-(3-bromophenylamino)-7-methoxyquinazolin-6-yl)-2-(piperidin-4-ylidene)acetamide]?
**A.** inhibition at 3 µM [1]: 94%; EC50 [2, 10]: 0.014 µM; EC50 [4]: 1600 nM

**Q.** Which results are given for `CCOc1cc2ncc(C#N)c(Nc3cccc(Br)c3)c2cc1NC(=O)C=C1CCNCC1` [Example 154, N-(4-(3-bromophenylamino)-3-cyano-7-ethoxyquinolin-6-yl)-2-(piperidin-4-ylidene)acetamide]?
**A.** EC50 [2, 10]: 0.11 µM; EC50 [4]: 3100 nM

**Q.** Which results are given for `CS(=O)(=O)CCNCc1ccc(-c2ccc3ncnc(Nc4ccc(OCc5cccc(F)c5)c(Cl)c4)c3c2)o1` [Lapatinib, reference compound]?
**A.** EC50 ([2]; A-431, 48 h, read-out: Growth inhibition activity EC50 (μM)): 1.19 µM; EC50 [3]: 120 nM; EC50 [6]: 70 nM

**Q.** How did the EC50 [2, 10] turn out when `COc1cc2ncnc(Nc3ccc(OCc4ccccn4)c(Cl)c3)c2cc1NC(=O)C=C1CCNCC1` [Example 108, N-(4-(3-chloro-4-(pyridin-2-ylmethoxy)phenylamino)-7-methoxyquinazolin-6-yl)-2-(piperidin-4-ylidene)acetamide] was run?
**A.** Its EC50 is 3 µM.

**Q.** And the EC50 [3]?
**A.** Its EC50 is 1570 nM.

**Q.** And the EC50 [4]?
**A.** Its EC50 is 7000 nM.

**Q.** And the EC50 [5]?
**A.** Its EC50 is 180 nM.

**Q.** What about the EC50 [6] of the same compound?
**A.** The EC50 was 530 nM.

**Q.** Which EC50 [1, 11] does the source give for `O=C(C=C1CCNCC1)Nc1ccc2ncnc(Nc3ccc(F)c(Cl)c3)c2c1` [Example 32, N-(4-(3-chloro-4-fluorophenylamino)quinazolin-6-yl)-2-(piperidin-4-ylidene)acetamide] here?
**A.** Its EC50 is 90 nM.

**Q.** What about the EC50 [1, 12] of the same compound?
**A.** Its EC50 is 90 nM.

**Q.** And the inhibition at 3 µM [1]?
**A.** Its inhibition at 3 µM is 87%.

**Q.** What about the EC50 [2, 10] of the same compound?
**A.** The EC50 was 0.6 µM.

**Q.** And the “Inhibition percent(%)” value [7]?
**A.** Its value is 78%.

**Q.** What about the “Activity (irreversible or reversible inhibitor)” value [7] of the same compound?
**A.** The value was “Irreversible inhibitor”.

**Q.** What does the source list for `C#Cc1cccc(Nc2ncnc3cc(OC)c(NC(=O)C=C4CCNCC4)cc23)c1` [Example 42, N-(4-(3-ethynylphenylamino)-7-methoxyquinazolin-6-yl)-2-(piperidin-4-ylidene)acetamide]?
**A.** EC50 [2, 10]: 0.12 µM; EC50 [4]: 3000 nM

**Q.** Which results are given for `COCCN1CCC(=CC(=O)Nc2cc3c(Nc4ccc(F)c(Cl)c4)ncnc3cc2OC)CC1` [Example 73, N-(4-(3-chloro-4-fluorophenylamino)-7-methoxyquinazolin-6-yl)-2-(1-(2-methoxyethyl)piperidin-4-ylidene)acetamide]?
**A.** inhibition at 3 µM [1]: 82%; EC50 [2, 10]: 0.63 µM; EC50 [3]: 21500 nM; EC50 [4]: 8000 nM; EC50 [5]: 1700 nM; EC50 [6]: 2310 nM
